# Measurements: patent publication US20170216360A1, “METHODS AND COMPOSITIONS FOR IMPROVING HOMING OF CELLS INCLUDING MESENCHYMAL STEM CELLS” (SANOFI, priority 2014, published 2017)
# Where a name gives a salt, the structure may show the parent alone.
# Columns and labels:
# CD11a mRNA = CD11a mRNA analysis by qPCR in MSCs; format: cell-based, human; conditions: 3 μM
# Procedure: (§1) The mRNA levels of CD11a and CD18 in response to Ro-31-8425 pretreatment of MSCs were analyzed by qPCR. Specifically, MSCs were treated with Ro-31-8425 (3 μM) or vehicle control (0.1% DMSO) for 2 h, 4 h, 8 h, 14 h or 24 h. Cells were then trypsinized, washed with ice-cold PBS and pelleted (500 g for 5 min at 4° C.) at during the treatment and immediately stored at −80° C. RNA extraction was then performed. Briefly, the frozen cell pellet was crushed with a tissue pestle (Fisher Scientific) in the presence of 1 mL TRI RNA isolation reagent (Sigma Aldrich). Upon complete pellet dissociation, 0.2 mL chloroform was added and suspension was vortexed for 15 s, followed by incubation at ambient temperature for 10 min. The mixture was centrifuged at 15,000 g for 15 min at […], the resulting supernatant aqueous phase was removed, thoroughly mixed with 0.5 mL isopropanol (Sigma Aldrich) and further centrifuged (at 15,000 g for 10 min) to obtain the total RNA precipitates. The RNA pellets were washed twice in 75% ethanol, and air dried for 10 min at room temperature before being reconstituted with 20 uL ultrapure H2O. The quality and quantity of the total RNAs were measured and verified using Nanodrop ND-2000 Spectrophotometer (NanoDrop Products). Subsequently, equal amount of total RNA (2 μg) was reverse transcribed into cDNA using a QuantiTect reverse transcription kit (Qiagen). […]
# MSC secretome = test: Secretomic analysis of small molecule-primed MSCs (Bio-plex immunoassays); format: cell-based, human
# CD18 mRNA = CD18 mRNA analysis by qPCR in MSCs; format: cell-based, human; conditions: 3 μM
# Procedure: as §1
# MSCs = test: Cell viability assay, XTT; format: cell-based, human
# Procedure: Pre-confluent MSCs were incubated with Ro-31-8425 at the indicated concentrations for 24 h or 72 h and cell viability was assessed via an XTT assay according to manufacturer's instructions (ATCC).
# MSCs were pretreated with Ro-31-8425 for 24 h or 72 h, followed by quantification of MSC viability via XTT. (Y axis presents the percentage of viable cells compared to untreated control (cells incubated with 10% FBS-supplemented MEMa media), error bars represent standard deviation, n=3).
# [1] = tested on: CD11a surface expression on huMSCs; test: Medium throughput screen: CD11a surface expression on MSCs, PE-CY5 anti-CD11a antibody, laser-scanning fluorescence microplate cytometer; format: cell-based, human
# TNF-α = TNF-α ELISA of ear homogenates after infusion of pretreated MSCs; format: in vivo, mouse
# Procedure: (§2) To determine the impact of small molecule pretreatment on MSC therapeutic potential, ear swelling was measured. As a baseline, we measured ear thickness of all mice to be used using a caliper (Mitutoyo Inc.) and found no difference. Each measurement was taken 3 times with the average value recorded, and care taken to ensure minimal compression. Inflammation was then induced by injection of 30 μg LPS in 30 μL 0.9% saline solution into the pinna of the left ear. 24 hours later, n=3 mice of each condition were infused with no MSCs, 10e6/20 g body weight MSCs pretreated for 24 hours with 0.1% DMSO, or 10e6/20 g body weight MSCs pretreated for 24 hours with 3.0 μM small molecule compound 1929. Upon 24 hours after cell infusion, ear thickness was measured using a caliper as before. To evaluate TNF-α secretion, inflammation and MSC treatment was performed as above with n=4-6 mice for each condition. Mice were sacrificed 24 hours after cell administration and both ears were harvested. Ears were then ground in ice-cold extraction buffer (RIPA with 0.5% Tween-20) using a homogenizer. Homogenates were transferred to 1.5 mL tubes, centrifuged at 13,000×g for 10 minutes at 4° C., and the supernatant was stored at −80° C. until analysis. The level of mouse TNF-α level in the samples was quantified using an anti-mouse TNF-α ELISA kit (Biolegend, San Diego, Calif.).
# [2] = tested on: LPS-induced inflamed mouse ear; test: Ear thickness in LPS-induced ear inflammation after infusion of pretreated MSCs; format: in vivo
# Procedure: as §2
smiles,measurement,setting,value
"Cn1cc(C2=C(c3c4n(c5ccccc35)CCC(CN)C4)C(=O)NC2=O)c2ccccc21 (centres unmarked) [Compound 1929, 3-(8-aminomethyl-6,7,8,9-tetrahydro-pyrido[1,2-a]indol-10-yl)-4-(1-methyl-1H-indol-3-yl)-pyrrole-2,5-dione hydrochloride]",CD11a mRNA levels in MSCs,CD11a mRNA,significantly increased
same,Time of peak CD11a mRNA levels post incubation,CD11a mRNA,14 h
same,"Number of analytes with statistically significant changes, out of 48 secreted factors",MSC secretome,3
same,Mean of [IFN-g],"MSC secretome; 0.3 μM, 24 h, MSC donor 318006",11.0 pg/mL
same,Mean of [IL-1ra],"MSC secretome; 0.3 μM, 24 h, MSC donor 318006",16.5 pg/mL
same,Mean of [IL-6],"MSC secretome; 0.3 μM, 24 h, MSC donor 318006",451.3 pg/mL
same,Mean of [IL-8],"MSC secretome; 0.3 μM, 24 h, MSC donor 318006",26.9 pg/mL
same,Mean of [IL-12p70],"MSC secretome; 0.3 μM, 24 h, MSC donor 318006",13.3 pg/mL
same,Mean of [LIF],"MSC secretome; 0.3 μM, 24 h, MSC donor 318006",14.2 pg/mL
same,Mean of [MCP-1],"MSC secretome; 0.3 μM, 24 h, MSC donor 318006",26.4 pg/mL
same,Mean of [MIF],"MSC secretome; 0.3 μM, 24 h, MSC donor 318006",54.9 pg/mL
same,Mean of [VEGF],"MSC secretome; 0.3 μM, 24 h, MSC donor 318006",547.2 pg/mL
same,Mean of [IL-1ra],"MSC secretome; 3 μM, 24 h, MSC donor 318006",22.6 pg/mL
same,Mean of [LIF],"MSC secretome; 3 μM, 24 h, MSC donor 318006",10.8 pg/mL
same,Mean of [MIF],"MSC secretome; 3 μM, 24 h, MSC donor 318006",69.4 pg/mL
same,IL-8 level secreted by MSC,MSC secretome; 3 micromolar for 24 hours,downregulation
same,MCP-1 level secreted by MSC,MSC secretome; 3 micromolar for 24 hours,downregulation
same,SDF-1alpha level secreted by MSC,MSC secretome; 3 micromolar for 24 hours,upregulation
same,Fold change of analyte IL-6 upon pretreatment (vs. vehicle control),MSC secretome; MSC secretome,0.34 +/− 0.09
same,Fold change of analyte MCP-1 upon pretreatment (vs. vehicle control),MSC secretome; MSC secretome,0.54 +/− 0.09
same,mRNA levels of CD18 in MSCs,CD18 mRNA,did not upregulate
same,MSC viability,"MSCs; 0.25 to 4 μM, 24 h pretreatment",did not significantly compromise cell viability
same,Concentration levels at which toxicity to MSCs was seen,MSCs; 72 h pretreatment,greater than 4 μM
same,Effect on the expression of other homing ligands,[1],no observed effect
same,Reduction of increased TNF-α levels in the inflamed ear,TNF-α; 24 h after pretreated MSCs,~50%
same,"TNF-alpha levels in the inflamed ear, fold reduction",TNF-α; 24 hours after pretreated MSCs,2.6±0.5 fold
same,Effect on ear swelling relative to control MSCs,[2]; 24 hours post administration,over 3 ×
same,Reduction in ear thickness,"[2]; 24 hours post administration of pretreated MSCs, vs no MSC",20.0±5.3 μm
same,Effect in reducing ear swelling relative to vehicle control MSCs,[2]; 24 h post-administration,greater than 3 fold
